From patent US7598341B2, “Molecules that selectively home to vasculature of premalignant or malignant lesions of the pancreas and other organs” (Burnham Institue for Medical Research, priority 2003, dated 2009)
“Also recorded” adds a separate entry of the source.

How the values were obtained:
[1] = system: RIP1-Tag2 angiogenic islets and tumors; assay: In vivo homing of phage (pools and individual phage) in RIP1-Tag2 mice; parameters: species or system mouse; details: phage-displayed peptide, i.v., FIG. 1D, with ex vivo binding patterns
Description: For in vivo selection of phage that home specifically to premalignant lesions and malignant tumors, the ex vivo pre-selected phage pool was injected intravenously into 12 week old RIP1-Tag2 mice through the tail vein, allowed to circulate for 7 minutes and heart-perfused with PBS to remove unbound intravascular phage. As the vasculature is preferentially available for the phage to bind in this selection, there is an enrichment of phage that bind to the endothelium of the target tissue.
The RIP1-Tag2 lesions and control tissues (brain, kidney, spleen, lung, ‘white’ pancreas lacking hemorrhagic lesions and liver were excised to allow for comparison of homing efficiencies. Cell suspensions were prepared by mechanical disruption of the tissues. Tissues were washed to remove unbound phage, and the bound phage rescued and amplified by adding E. coli. The phage pool was re-injected into mice at a similar disease stage, and the cycle repeated. In each experiment, non-recombinant control phage were used as a control for relative selectivity.
Sets of 96 phage clones were randomly collected from each homing phage population that selectively homed to premalignant angiogenic islets or pancreatic tumor cells. Peptide-encoding DNA inserts from collected phage clones were amplified by PCR, and the PCR products sequenced. Phage representing the most frequently appearing peptide motifs were individually tested for their ability to selectively home to the lesions on which they were selected, relative to other stages in the tumorigenesis pathway and to control organs. Six of the phage selected for further analysis were from the tumor screen (referred to as KAA, RGR, RSR, VGVA, VGVG and KAR), and one (EYQ) was picked from the angiogenic screen.

[2] = system: RIP1-Tag2 angiogenic islets and tumors; assay: Localization of fluorescein-conjugated peptides after intravenous injection; assay type: in vivo, mouse; details: for homing selectivity of purified peptides: i.v. into 8-week or 12-week old RIP-Tag2 mice; for homing to normal islets, kidney, brain, liver, lung or spleen: purified peptides i.v.; for localization in RIP1-Tag2 angiogenic islets / localization in RIP1-Tag2 tumors / localization in normal islets: fluorescein-conjugated peptide i.v., 7 minutes circulation, FIG. 2
Description: Fluorescein-conjugated peptides corresponding to phage insert sequences were synthesized using an automated peptide synthesizer with standard solid-phase fluorenylmethoxycarbonyl (Fmoc) chemistry. […] of each individual fluorescein-conjugated peptide was injected intravenously into the tail vein of RIP1-Tag2 mice at 8 or 12 weeks of age, and into normal BL/6 mice. The peptide was allowed to circulate for 7 minutes, followed by heart perfusion first with PBS and then with Zn-buffered formalin. The RIP1-Tag2 pancreas and control organs (brain, kidney, liver, lung and spleen) were removed, fixed for one hour in formalin, washed with 1×PBS, placed in 30% sucrose for several hours, washed with 1×PBS, and embedded in OCT (Tissue-Tek). Each peptide was injected into at least three individual RIP1-Tag2 or normal mice at each of the different stages. To examine the localization of injected fluorescein-conjugated peptides, frozen sections ([…] thick) were cut on a cryostat, mounted in Vectashield Mounting Medium with DAPI (Vector Laboratories) and visualized under an inverted fluorescent microscope or a confocal microscope (Zeiss LSM 510 META).

[3] = system: endothelial cell and pericyte markers (MECA-32, NG2); assay: Co-localization of fluorescein-conjugated peptides with vascular markers; assay type: in vivo, mouse; details: fluorescein-conjugated peptide i.v.; for co-localization with endothelial cell and pericyte markers in RIP1-Tag2 islet lesions: MECA-32, NG2, FIG. 3
Description: To confirm that intravenous administration of phage libraries selects for phage carrying peptides that bind to endothelial molecules specific for the target vasculature, tissues were collected following i.v. infusion with the various fluorescein-conjugated peptides, sectioned, and evaluated with endothelial cell markers.
For immunohistochemistry, frozen slides were pre-incubated with blocking buffer (1×PNB from NEN Biosciences) for one hour, washed several times in 1×PBS and incubated with the primary antibody of interest overnight at 4° C. The cell-specific antibodies used were rat monoclonal anti-mouse CD31 (1:200; BD Pharmingen), rat monoclonal anti-mouse MECA-32 (1:200; BD Pharmingen), rabbit polyclonal anti-mouse NG2 (1:200; Chemicon), and rat monoclonal anti-mouse PDGFRb (CD140b) (1:200; eBioscience). The corresponding secondary antibodies; Cy-3 donkey anti-rabbit IgG and Rhodamine Red donkey anti-rat IgG (Jackson ImmunoResearch), were used at a 1:200 dilution and incubated for one hour at room temperature. The following species-matched immunoglobulins were used as negative controls; rabbit IgG (Vector Laboratories) and rat IgG (Jackson ImmunoResearch) at a 1:200 dilution. The slides were washed several times in 1×PBS and mounted in Vectashield Mounting Medium with DAPI (Vector Laboratories). Hematoxylin and eosin (H&E) staining was performed for histological grading of adjacent sections by standard methods, and lesions were graded as previously described (Lopez and Hanahan, 2002).
The primary analysis involved immunostaining with a mouse pan-endothelial cell antigen (MECA-32) antibody that recognizes a dimer of 50-55 kDa protein subunits present on all endothelial cells (Hallman et al., 1995; Leppink et al., 1989) (FIG. 3 B,C,H,I,N,O). Additional analyses involved immunostaining to reveal CD31/PE-CAM, or systemic infusion of a fluorescent-labeled lectin that binds to the endothelial lumen. In addition, tissue sections from peptide-infused mice were stained with an antibody recognizing NG2, a marker of the neovascular pericytes (Schlingemann et al., 1990, 1991) (FIG. 3 E,F,K,L,Q,R).

[4] = system: RIP1-Tag2 pancreatic tumor, bTC3-derived subcutaneous transplant tumor, K14-HPV16 squamous cell carcinoma; assay: Relative homing efficiency of individual phage in various tumor models (FIG. 4A); assay type: in vivo, mouse; details: phage from the RIP1-Tag2 tumor screen
Description: (§1) To determine whether phage identified to home to pancreatic tumors also home to other types of tumors, these phage were tested using animals having various types of tumors, including bTC3 subcutaneous tumor and MDA MB-435 subcutaneous tumor. bTC3 transplant tumors arise following subcutaneous inoculation of nude mice with cultured islet tumor-derived (bTC3) cells (Efrat et al., 1988). Since the vasculature of a subcutaneously grown bTC3 tumor derives from skin, we also tested another subcutaneous transplant tumor, arising from inoculation of the MDA-MB-435 human breast carcinoma cell line. Finally, K14-HPV16 mice, another well-studied transgenic mouse model of cancer that develop tumors of the squamous epithelial cells of the skin (Arbeit et al., 1994; Coussens et al., 1996), was used to compare RIP1-Tag2 islet tumors to a tumor with similar multistage pathogenesis arising in a different tissue.
(§2) Tumors were dissected from the ear or chest of K14-HPV16 mice. For the bTC3 allograft models, 10^6 bTC3 tumor cells (Efrat et al., 1988) were inoculated under the skin of the rear flank of nu/nu mice in a BALB/c background and allowed to grow until approximately 5 mm in size, and then used for experimental analysis. MDA-MB-435 xenograft models were generated by inoculating 10^6 tumor cells subcutaneously in the chest of nu/nu Balb/c mice. Tumors were used for the homing/binding experiments at 8-12 weeks after injection of the tumor cells.
FIG. 4A is bar graph showing homing efficiency of individual phage to a pancreatic tumor in a RIP1-Tag2 mouse, a bTC3-derived subcutaneous transplant tumor in a nude mouse, and a squamous cell carcinoma in a K14-HPV16 mouse.

[5] = system: squamous cell carcinoma in a K14-HPV16 mouse; assay: Homing to HPV tumor; assay type: in vivo; details: FIG. 4A
Description: as §1, §2

[6] = system: bTC3-derived subcutaneous transplant tumor in a nude mouse; assay: Homing to bTC3 subcutaneous tumor; assay type: in vivo; details: FIG. 4A
Description: as §1, §2

[7] = system: MDA MB-435 subcutaneous tumor; assay: Homing to MDA-MB-435 subcutaneous tumor; assay type: in vivo, mouse; details: fluorescein-conjugated peptide i.v., FIG. 4B
Description: as §1, §2

Row | Substance | homing class of individual phage (angiogenic islets or tumors in vivo) [1] | homing selectivity of purified peptides [2] | homing to normal islets, kidney, brain, liver, lung or spleen [2] | localization in RIP1-Tag2 angiogenic islets [2] | localization in RIP1-Tag2 tumors [2] | localization in normal islets [2] | co-localization with MECA-32 or NG2 in adjacent exocrine pancreas or normal pancreatic islets [3] | co-localization with endothelial cell and pericyte markers in RIP1-Tag2 islet lesions [3] | relative homing efficiencies in the various tumor models (category) [4] | homing to HPV tumor [5] | homing to TC3 tumor [6] | homing to MDA tumor [7]
1 | CEYQLDVE [linear homing peptide] | angiogenic islet-selective | highly selective for premalignant angiogenic islets | did not appreciably home |  |  |  |  |  |  |  |  | 
2 | CKAAKNK | tumor-selective | malignant solid tumors | did not appreciably home | little or no localization | abundant localization | little or no localization | no co-localization | some co-localization both with endothelial cell and pericyte markers; also recorded: co-localized both with the endothelial cell and pericyte markers | selectively home to RIP1-Tag2 tumors | did not home appreciably | did not home appreciably | homed
3 | CKGAKAR | tumor-selective | malignant solid tumors | did not appreciably home |  |  |  |  |  | more general homing to other tumors in addition to RIP1-Tag2 | homed | did not home appreciably | 
4 | CRSRKG [linear homing peptide] | angiogenic islet-selective | highly selective for premalignant angiogenic islets | did not appreciably home | abundant accumulation | little or no localization | little or no localization | no co-localization | some co-localization both with endothelial cell and pericyte markers; also recorded: co-localized both with the endothelial cell and pericyte markers |  | did not home appreciably | homed | did not home appreciably
5 | FRVGVADV [linear homing peptide; homes to both types of lesion] | home to both types of lesion | both angiogenic islets and tumors | did not appreciably home |  |  |  |  |  | selectively home to RIP1-Tag2 tumors | did not home appreciably | did not home appreciably | 
6 | VGVGEWSV | tumor-selective |  |  |  |  |  |  |  | more general homing to other tumors in addition to RIP1-Tag2 | did not home appreciably | homed | 
